As a reminder, the inhibition is the percentage by which the read-out fell short of the control.

Structures are written as SMILES.

The target of assay [1] is T1, Serine/threonine-protein kinase Sgk1 (Homo sapiens) (UniProt O00141).
T1 sequence (whole entry): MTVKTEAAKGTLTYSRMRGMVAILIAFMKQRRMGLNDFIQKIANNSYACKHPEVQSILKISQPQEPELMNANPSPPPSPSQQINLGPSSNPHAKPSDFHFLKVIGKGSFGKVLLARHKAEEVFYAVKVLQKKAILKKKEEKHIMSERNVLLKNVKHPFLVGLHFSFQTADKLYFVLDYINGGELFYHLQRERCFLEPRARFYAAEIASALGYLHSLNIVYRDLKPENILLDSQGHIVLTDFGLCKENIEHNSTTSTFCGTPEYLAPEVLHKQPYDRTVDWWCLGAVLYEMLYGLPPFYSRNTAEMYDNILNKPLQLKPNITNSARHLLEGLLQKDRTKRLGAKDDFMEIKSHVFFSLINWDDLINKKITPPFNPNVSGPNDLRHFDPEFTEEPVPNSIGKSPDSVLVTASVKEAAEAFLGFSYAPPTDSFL
Briefly: Inhibition of human truncated SGK1 expressed in baculovirus assessed as substrate phosphorylation using fluorescence-labelled peptides as substrate at 2 uM after 90 mins by microfluidic peptide phosphorylation assay.

Assay [2] deals with T2, Calcium/calmodulin-dependent protein kinase type IV (Homo sapiens) (UniProt Q16566).
T2 sequence (whole entry): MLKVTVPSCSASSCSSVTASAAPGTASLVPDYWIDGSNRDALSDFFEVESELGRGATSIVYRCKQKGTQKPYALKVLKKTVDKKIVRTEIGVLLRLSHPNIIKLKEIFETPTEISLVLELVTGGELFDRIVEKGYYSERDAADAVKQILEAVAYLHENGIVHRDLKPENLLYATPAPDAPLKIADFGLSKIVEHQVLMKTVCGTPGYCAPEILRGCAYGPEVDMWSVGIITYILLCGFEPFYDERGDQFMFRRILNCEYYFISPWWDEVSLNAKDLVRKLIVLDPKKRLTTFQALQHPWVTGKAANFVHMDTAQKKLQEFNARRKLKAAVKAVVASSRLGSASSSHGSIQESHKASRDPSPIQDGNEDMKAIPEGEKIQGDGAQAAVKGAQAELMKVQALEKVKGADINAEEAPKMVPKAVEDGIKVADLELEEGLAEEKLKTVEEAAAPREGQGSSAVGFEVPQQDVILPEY
The assay can be described thus: Inhibition of human full length CAMK4 expressed in baculovirus assessed as substrate phosphorylation using fluorescence-labelled peptides as substrate at 0.2 uM after 90 mins by microfluidic peptide phosphorylation assay.

Assay [3] deals with T3, Serine/threonine-protein kinase D1 (Homo sapiens) (UniProt Q15139).
T3 sequence (whole entry): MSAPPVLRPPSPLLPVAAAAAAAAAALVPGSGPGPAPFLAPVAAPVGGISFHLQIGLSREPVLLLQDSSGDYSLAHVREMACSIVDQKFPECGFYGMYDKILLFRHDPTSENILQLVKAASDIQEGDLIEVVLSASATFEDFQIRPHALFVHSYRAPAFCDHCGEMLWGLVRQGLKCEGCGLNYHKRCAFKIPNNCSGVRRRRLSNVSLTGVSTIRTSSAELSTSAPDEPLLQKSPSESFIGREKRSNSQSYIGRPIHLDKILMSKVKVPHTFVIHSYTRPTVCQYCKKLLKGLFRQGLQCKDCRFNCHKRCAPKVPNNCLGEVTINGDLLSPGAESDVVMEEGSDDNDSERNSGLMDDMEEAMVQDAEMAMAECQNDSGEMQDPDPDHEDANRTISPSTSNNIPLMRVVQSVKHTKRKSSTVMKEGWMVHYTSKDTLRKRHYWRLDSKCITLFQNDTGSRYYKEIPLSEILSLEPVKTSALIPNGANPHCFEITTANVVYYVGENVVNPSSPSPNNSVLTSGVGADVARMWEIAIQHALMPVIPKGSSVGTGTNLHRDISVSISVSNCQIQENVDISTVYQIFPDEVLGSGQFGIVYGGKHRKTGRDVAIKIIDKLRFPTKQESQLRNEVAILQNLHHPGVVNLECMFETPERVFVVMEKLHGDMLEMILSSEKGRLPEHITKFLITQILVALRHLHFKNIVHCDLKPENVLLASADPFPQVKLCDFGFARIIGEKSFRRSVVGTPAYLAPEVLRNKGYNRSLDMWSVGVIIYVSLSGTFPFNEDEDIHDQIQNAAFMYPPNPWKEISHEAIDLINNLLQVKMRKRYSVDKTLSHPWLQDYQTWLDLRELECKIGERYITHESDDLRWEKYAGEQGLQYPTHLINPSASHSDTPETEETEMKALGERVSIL
Briefly: Inhibition of human full length PKD1 expressed in baculovirus assessed as substrate phosphorylation using fluorescence-labelled peptides as substrate at 0.06 uM after 90 mins by microfluidic peptide phosphorylation assay.

Assay [4] deals with T4, Serine/threonine-protein kinase 3 (Homo sapiens) (UniProt Q13188).
T4 sequence (whole entry): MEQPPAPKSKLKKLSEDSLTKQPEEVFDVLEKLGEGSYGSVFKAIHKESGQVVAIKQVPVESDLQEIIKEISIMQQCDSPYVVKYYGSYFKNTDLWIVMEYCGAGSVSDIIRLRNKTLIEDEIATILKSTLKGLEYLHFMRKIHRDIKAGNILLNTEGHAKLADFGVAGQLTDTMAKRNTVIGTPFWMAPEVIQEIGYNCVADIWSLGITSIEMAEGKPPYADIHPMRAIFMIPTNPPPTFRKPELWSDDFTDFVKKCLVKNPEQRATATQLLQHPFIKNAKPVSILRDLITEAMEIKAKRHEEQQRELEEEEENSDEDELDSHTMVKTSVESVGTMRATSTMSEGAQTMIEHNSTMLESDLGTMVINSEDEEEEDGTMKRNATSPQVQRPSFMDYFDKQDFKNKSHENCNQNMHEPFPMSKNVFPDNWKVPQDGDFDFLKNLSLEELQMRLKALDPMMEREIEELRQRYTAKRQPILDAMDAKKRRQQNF
The assay can be described thus: Inhibition of human full length MST2 expressed in baculovirus assessed as substrate phosphorylation using fluorescence-labelled peptides as substrate at 9 uM after 90 mins by microfluidic peptide phosphorylation assay.

Assay [5] concerns the target Mitogen-activated protein kinase 1 (Homo sapiens) (UniProt P28482). The assay can be described thus: Inhibition of human full length ERK2 expressed in Escherichia coli cell assessed as substrate phosphorylation using fluorescence-labelled peptides as substrate at 95 uM after 90 mins by microfluidic peptide phosphorylation assay.
Assay [6] has as its target Tyrosine-protein kinase HCK (Homo sapiens) (UniProt P08631). The assay can be described thus: Inhibition of human HCK catalytic domain expressed in baculovirus assessed as substrate phosphorylation using fluorescence-labelled peptides as substrate at 420 uM after 90 mins by microfluidic peptide phosphorylation assay.

Tyrosine-protein kinase HCK (Homo sapiens), sequence (P08631 2-526 limits assumed): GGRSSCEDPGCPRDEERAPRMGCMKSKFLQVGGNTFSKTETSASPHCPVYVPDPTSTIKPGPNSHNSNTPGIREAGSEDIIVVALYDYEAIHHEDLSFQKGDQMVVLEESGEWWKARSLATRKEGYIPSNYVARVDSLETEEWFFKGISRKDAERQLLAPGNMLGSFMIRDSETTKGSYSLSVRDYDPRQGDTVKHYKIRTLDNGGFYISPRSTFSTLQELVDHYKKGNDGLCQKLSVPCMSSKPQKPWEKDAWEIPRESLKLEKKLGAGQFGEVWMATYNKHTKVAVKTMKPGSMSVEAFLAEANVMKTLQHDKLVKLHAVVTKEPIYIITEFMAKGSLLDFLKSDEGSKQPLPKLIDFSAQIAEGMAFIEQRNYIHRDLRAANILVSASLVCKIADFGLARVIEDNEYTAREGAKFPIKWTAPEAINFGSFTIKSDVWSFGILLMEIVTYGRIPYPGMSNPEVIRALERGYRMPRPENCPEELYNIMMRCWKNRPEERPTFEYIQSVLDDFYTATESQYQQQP
Mitogen-activated protein kinase 1 (Homo sapiens), sequence (P28482 whole entry, the tested form may be a part): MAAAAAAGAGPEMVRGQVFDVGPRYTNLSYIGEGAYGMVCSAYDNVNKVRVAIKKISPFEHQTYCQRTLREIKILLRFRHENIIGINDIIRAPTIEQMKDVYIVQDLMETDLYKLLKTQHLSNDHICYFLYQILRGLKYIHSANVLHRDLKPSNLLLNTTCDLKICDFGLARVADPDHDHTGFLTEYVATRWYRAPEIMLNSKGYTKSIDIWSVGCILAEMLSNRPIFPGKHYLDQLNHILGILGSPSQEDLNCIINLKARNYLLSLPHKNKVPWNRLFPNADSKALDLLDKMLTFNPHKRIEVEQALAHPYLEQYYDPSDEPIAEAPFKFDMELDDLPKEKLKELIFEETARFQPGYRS

As to `NC1CCN(c2ncnc3[nH]ccc23)CC1`, the inhibition in assay [1] was found to be 27%.

With `Clc1ccc(C2(c3ccc(-c4ncnc5[nH]cnc45)cc3)CCNCC2)cc1`, the inhibition in assay [2] turned out to be 74%.

As to `NC1(Cc2ccc(Cl)cc2)CCN(c2ncnc3[nH]ccc23)CC1`, in assay [3], the inhibition is 32.5%.

Regarding `NCC1CN(c2ncnc3[nH]c4cnccc4c23)CCO1` (stereo unspecified), the inhibition in assay [4] came to 81%.

Consider `NCCc1ccc(-c2ncnc3[nH]cnc23)cc1`, for which the inhibition in assay [5] came to 55.5%.

For the compound `c1nc(N2CCOCC2)c2nc[nH]c2n1`, the inhibition in assay [6] amounted to 69.5%.

The record behind these values is ChEMBL document CHEMBL3132769, “Fragment growing to retain or alter the selectivity of anchored kinase hinge-binding fragments” (Medchemcomm, 2014).
